The source made the active and inactive calls. No cut-off for these calls is given here.
Columns and labels:
Human betaherpesvirus 5 [1] = test: Antiviral activity against HCMV AD169 infected in human HEL cells assessed as reduction in virus-induced cytopathic effect after 7 days; assay type: functional, organism-based
Human betaherpesvirus 5 [2] = test: Antiviral activity against HCMV Davis infected in human HEL cells assessed as reduction in virus-induced cytopathic effect after 7 days; assay type: functional, organism-based
Human alphaherpesvirus 3 [3] = test: Antiviral activity against thymidine kinase expressing Varicella-Zoster virus Oka infected in human HEL cells assessed as reduction in plaque formation after 5 days; assay type: functional, organism-based; conditions: Human alphaherpesvirus 3, strain Oka vaccine, 120 h
[4] = Cytostatic activity against human HEL cells after 3 days by coulter counter method; assay type: ADME, cell-based
Human alphaherpesvirus 3 [5] = test: Antiviral activity against thymidine kinase deficient Varicella-Zoster virus 07-1 infected in human HEL cells assessed as reduction in plaque formation after 5 days; assay type: functional, organism-based; conditions: Human alphaherpesvirus 3, 07-1, HEL, 120 h

Row | Structure (SMILES) | Activity (Human betaherpesvirus 5 [1]) | Activity (Human betaherpesvirus 5 [2]) | EC50 (Human alphaherpesvirus 3 [3]) [µM] | CC50 at 72 h [4] [µM] | EC50 (Human alphaherpesvirus 3 [5]) [µM]
1 | CC(=O)C1=C(C)N(Cc2cn(Cc3ccccc3)nn2)C(=O)N(Cc2cn(Cc3ccccc3)nn2)C1c1ccccc1 (stereo unspecified) | inactive | inactive | 8.38 | 7.02 | 6.08
2 | O=c1[nH]c(=O)n([C@H]2C[C@H](O)[C@@H](CO)O2)cc1/C=C/Br [BRIVUDINE] | – | – | 0.025 | > 300 | 104
3 | CC(=O)C1=C(C)N(Cc2cn(Cc3ccc([N+](=O)[O-])cc3)nn2)C(=O)N(Cc2cn(Cc3ccc([N+](=O)[O-])cc3)nn2)C1c1ccc(OCc2cn(Cc3ccc([N+](=O)[O-])cc3)nn2)cc1 (stereo unspecified) | inactive | inactive | 69.9 | – | > 20
4 | COc1ccc(OC)c(C2NC(=O)N(Cc3cn(Cc4ccc([N+](=O)[O-])cc4)nn3)C(C)=C2C(C)=O)c1 (stereo unspecified) | inactive | inactive | 44.7 | – | 48.1
5 | CC(=O)C1=C(C)N(Cc2cn(Cc3ccccc3)nn2)C(=O)NC1c1ccc(OCc2cn(Cc3ccccc3)nn2)cc1 (stereo unspecified) | inactive | inactive | 11.3 | > 100 | 10.8
6 | CC(=O)C1=C(C)N(Cc2cn(Cc3ccc([N+](=O)[O-])cc3)nn2)C(=O)N(Cc2cn(Cc3ccc([N+](=O)[O-])cc3)nn2)C1c1ccccc1 (stereo unspecified) | inactive | inactive | 3.62 | > 100 | 7.85
7 | CC(=O)C1=C(C)N(Cc2cn(Cc3ccc([N+](=O)[O-])cc3)nn2)C(=O)NC1c1ccccc1 (stereo unspecified) | inactive | inactive | 48.9 | – | 42.6
8 | COc1ccc(OC)c(C2NC(=O)N(Cc3cn(Cc4ccccc4)nn3)C(C)=C2C(C)=O)c1 (stereo unspecified) | inactive | inactive | 48.9 | – | 50.2
9 | CC(=O)C1=C(C)N(Cc2cn(Cc3ccccc3)nn2)C(=O)N(Cc2cn(Cc3ccccc3)nn2)C1c1ccc(N(C)C)cc1 (stereo unspecified) | inactive | inactive | 23.2 | – | 17
10 | COc1ccc(OC)c(C2C(C(C)=O)=C(C)N(Cc3cn(Cc4ccccc4)nn3)C(=O)N2Cc2cn(Cc3ccccc3)nn2)c1 (stereo unspecified) | inactive | inactive | 9.85 | > 100 | 8.87
11 | Nc1nc2c(ncn2COCCO)c(=O)[nH]1 [ACYCLOVIR] | – | – | 2.35 | > 440 | 133

— ChEMBL document CHEMBL4152322, “Dihydropyrimidinone/1,2,3-triazole hybrid molecules: Synthesis and anti-varicella-zoster virus (VZV) evaluation” (Eur J Med Chem, 2018)
